In US20220144812A1, “QUINOLINE DERIVATIVES AND THEIR USE FOR THE TREATMENT OF CANCER” (Epizyme, Inc., priority 2019, published 2022):
Where two headings read alike, the source gives them in different places.

Columns and labels:
[1] = system: H3K18Ac in HB-CLS-2 cells; test: H3K18AC in-cell western (ICW) assay; format: cell-based; settings: H3K18Ac in-cell western, read-out: CREBBP ICW IC50
Excerpt: The following example describes methods and materials relating to an H3K18AC in-cell western assay. IC50 values (micromolar (μM)) are summarized in Table 1, Table 2, and Table 3 under the column labeled: “CREBBP ICW IC50 (micromolar).”
MATERIALS: HB-CLS-2 cell line, DMEM: Ham's F12 medium (1:1 mixture), penicillin-streptomycin, heat inactivated fetal bovine serum, D-PBS, Odyssey blocking buffer, 800CW goat anti-rabbit IgG (H+L) antibody, Licor Odyssey CLx Infrared Scanner, H3K18Ac rabbit monoclonal antibody. DRAQS fluorescent probe solution (5 mM), and 100% methanol were commercially available. HB-CLS-2 adherent cells were maintained in complete growth medium (DMEM: Ham's F12 supplemented with 10% v/v heat inactivated fetal bovine serum) and cultured at 37° C. under 5% CO2.
METHOD: Cell Treatment, ICW for detection of H3K18Ac and DNA content. HB-CLS-2 cells were seeded in assay medium (DMEM: Ham's F12 supplemented with 10% v/v heat inactivated fetal bovine serum and 1% Penicillin/Streptomycin) at a concentration of 80,000 cells per mL in a Poly-D-Lysine coated 384-well culture plates at 50 μL per well. Plates were incubated at room temperature for 30 minutes and then incubated at 37° C., 5% CO2 for additional 16-24 hours. Compounds and DMSO normalization were then added directly to the plates using a D300 Digital Dispenser and returned to the incubator at 37° C., 5% CO2 for 2 hrs. After the incubation, the contents of the plates were discarded into the appropriate waste stream and blotted on laboratory tissue to remove residual liquid. 90 μL per well of 100% ice cold methanol was added to the plates and incubated at room temperature for 15 minutes. Then methanol was then discarded into the appropriate waste stream and the plates again blotted on laboratory tissue to remove residual liquid. Plates were transferred to a Biotek 405 plate washer and washed 3 times with 100 μL per well of wash buffer (1X PBS containing 0.1% Triton X-100 (v/v)). Next, 50 μL per well of Odyssey blocking buffer with 0.1% Tween 20 (v/v) was added to each plate and incubated for 1 hour at room temperature. Blocking buffer was removed and 20 μL of primary antibody were added (α-H3K18Ac diluted 1:800 in Odyssey buffer with 0.1% Tween 20 (v/v)) and plates were incubated overnight (16 hours) at 4° C. Plates were washed 5 times with 100 μL per well of wash buffer. Next 20 μL per well of secondary antibody was added (1:400 800CW goat anti-rabbit IgG (H+L) antibody, 1:2000 DRAQ5 in Odyssey buffer with 0.1% Tween 20 (v/v)) and incubated for 1 hour at room temperature. The plates were washed 3 times with 100 μL per well wash buffer then 3 times with 100 μL per well of water. Plates were allowed to dry at room temperature then imaged on the Licor Odyssey CLx machine which measured integrated intensity at 700 nm and 800 nm wavelengths. Both 700 and 800 channels were scanned.

[2] = target: T1, CREBBP (1084-1701) (Homo sapiens, UniProt Q92793); test: Biochemical assay for CREBBP (1084-1701), SAMDI; settings: SAMDI, read-out: CREBBP Biochemistry IC50
T1 construct: measured in the following biochemical assay using CREBBP (1084-1701); purchased
Excerpt: The following example describes materials and methods relating to a biochemical assay for CREBBP (1084-1701). IC50 values (micromolar (μM)) are summarized in Table 1, Table 2, and Table 3 under the column labeled: “CREBBP Biochemistry IC50 (micromolar).”
MATERIALS: Reagents 1M Tris pH 8.0, Tween 20 10%, DTT, bovine serum gelatin (BSG) 2%, Peptide #233 (biotin-H3 11-25, K14R, K23R), Acetyl-CoA, CREBBP (1084-1701), formic acid (100%), and sodium bicarbonate were commercially available.
METHODS: The effect of compounds was measured in the following biochemical assay using CREBBP (1084-1701). Enzyme mix 30 μL per well was added using a Multi-drop to wells of prepared Compound Stock plate. The enzyme was incubated in the Compound Stock plate for 30 minutes at room temperature. Substrate mix, 20 μL per well, was added to Compound Stock plate using a Multi-drop. The plate was covered and incubate 30 minutes at room temperature. The reaction was stopped with addition of 5 μL per well of 5% formic acid using a Multi-drop. The plate was Incubated for 30 minutes at room temperature. The reaction mixture was neutralized with addition of 5 μL per well of 10% sodium bicarbonate using a Multi-drop. The plate was Incubated for 35 minutes at room temperature. The reaction mixture was Transferred 2.5 μL per well to a SAMDI biochip. The plate was Incubated for 60 minutes at room temperature. The samples were washed, dried, and matrix applied to SAMDI biochip. The SAMDI biochip was then read on the mass spectrometer.

T1 sequence (Q92793 1084-1701): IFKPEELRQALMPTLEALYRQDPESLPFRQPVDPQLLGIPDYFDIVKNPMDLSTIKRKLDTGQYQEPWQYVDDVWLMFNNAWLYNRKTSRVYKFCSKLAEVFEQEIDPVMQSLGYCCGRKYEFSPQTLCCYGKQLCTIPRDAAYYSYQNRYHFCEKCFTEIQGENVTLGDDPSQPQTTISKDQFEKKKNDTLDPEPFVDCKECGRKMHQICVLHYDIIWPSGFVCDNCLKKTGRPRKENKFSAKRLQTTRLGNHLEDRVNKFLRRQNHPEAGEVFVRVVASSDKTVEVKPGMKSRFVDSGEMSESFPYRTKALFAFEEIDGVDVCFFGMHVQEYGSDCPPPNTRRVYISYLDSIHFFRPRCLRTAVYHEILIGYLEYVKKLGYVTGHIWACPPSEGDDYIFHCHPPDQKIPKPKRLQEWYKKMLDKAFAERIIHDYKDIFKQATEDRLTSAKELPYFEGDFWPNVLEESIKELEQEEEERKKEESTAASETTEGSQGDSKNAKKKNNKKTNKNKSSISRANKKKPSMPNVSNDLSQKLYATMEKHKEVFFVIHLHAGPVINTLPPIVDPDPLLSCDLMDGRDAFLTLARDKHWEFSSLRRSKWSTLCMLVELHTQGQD

| SMILES | IC50 [1] | IC50 [2] | IC50 ([1]; HB-CLS-2 cells) |
| --- | --- | --- | --- |
| CCn1ncc(CN(C)C(=O)c2cc(-c3ccccc3Cl)nc3ccc(Cl)cc23)c1C [Compound 95] | 1.8 µM | 0.25 µM |  |
| CCn1ncc(CN(C)C(=O)c2cc(-c3ccccc3Cl)nc3cc(Cl)c(Cl)cc23)c1C [Compound 97] | 1.9 µM | 0.47 µM |  |
| CCn1ncc(CN(C)C(=O)c2cc(-c3ccccc3OC)nc3ccc(Cl)cc23)c1C [Compound 98] | 2 µM | 0.4 µM |  |
| CCn1ncc(CN(C)C(=O)c2cc(-c3cccc(Cl)c3)nc3ccc(C)cc23)c1C [Compound 126] | 4.3 µM | 0.98 µM |  |
| CCn1ncc(CN(C)C(=O)c2cc(-c3ccccc3)nc3ccc(Cl)cc23)c1C [Compound 140] | 6.1 µM | 3.9 µM |  |
| CCn1ncc(CN(C)C(=O)c2cc(-c3ccccc3)nc3ccc(C)cc23)c1C [Compound 150] | 8.2 µM | 6.6 µM |  |
| CCn1ncc(CN(C)C(=O)c2nc(-c3cnn(C4CCNC4)c3)nc3ccc(Cl)cc23)c1C (centres unmarked) [Compound 206] |  | 192 µM | 20 µM |
| CCn1ncc(CN(C)C(=O)c2nc(-c3cnn(CCCO)c3)nc3ccc(Cl)cc23)c1C [Compound 212] |  | 96 µM | 20 µM |
| CCn1ncc(CN(C)C(=O)c2nc(-c3cnn(CCNC)c3)nc3ccc(Cl)cc23)c1C [Compound 213] |  | 135 µM | 20 µM |
| CCn1ncc(CN(C)C(=O)c2nc(Cc3ccccc3)nc3ccc(Cl)cc23)c1C [Compound 225] |  | 96 µM | 20 µM |
| CCc1onc(CN(C)C(=O)c2nc(-c3ccccc3Cl)nc3ccc(Cl)cc23)c1C [Compound 231] |  | 76 µM | 20 µM |
| CCn1ncc(CN(C)C(=O)c2nc(-c3ccc(OCCCN(C)C(=O)OC(C)(C)C)cc3)nc3ccc(Cl)cc23)c1C [Compound 242] |  | 57 µM | 20 µM |
| CCn1ncc(CN(C)C(=O)c2cc(-c3cn(CCCNC(=O)OC(C)(C)C)cn3)nc3ccc(Cl)cc23)c1C [Compound 243] |  | 99 µM | 20 µM |
| CCn1ncc(CN(C)C(=O)c2nc(-c3cnn(CCCNC)c3)nc3ccc(Cl)cc23)c1C [Compound 250] |  | 121 µM | 20 µM |
| CCn1ncc(CN(C)C(=O)c2nc(-c3cccc(Cl)c3Cl)nc3ccc(Cl)cc23)c1C [Compound 259] |  | 0.0026 µM | 0.18 µM |
| CCn1ncc(CN(C)C(=O)c2nc(-c3cccc(Cl)n3)nc3ccc(Cl)cc23)c1C [Compound 260] |  | 1.7 µM | 3.6 µM |
| CCn1ncc(CN(C)C(=O)c2nc(-c3ccccc3Cl)nc3ccc(COC)cc23)c1C [Compound 276] |  | 0.62 µM | 1.5 µM |
| Cc1c(CN(C)C(=O)c2nc(-c3ccccc3Cl)nc3ccc(Cl)cc23)cnn1C(C)C [Compound 279] |  | 0.082 µM | 0.76 µM |
| CCn1ncc(CN(C)C(=O)c2nc(-c3ccccc3OC)nc3ccc(Cl)cc23)c1C [Compound 281] |  | 0.83 µM | 1.3 µM |
| CCn1ncc(CN(C)C(=O)c2nc(-c3ccc(C)cc3)nc3ccc(Cl)cc23)c1C [Compound 282] |  | 5.5 µM | 11 µM |
| CCn1ncc(CN(C)C(=O)c2nc(-c3cccc(Br)c3)nc3ccc(Cl)cc23)c1C [Compound 283] |  | 0.00089 µM | 0.67 µM |
| Cc1c(CN(C)C(=O)c2nc(-c3ccccc3Cl)nc3ccc(Cl)cc23)cnn1C1CC1 [Compound 285] |  | 4.2 µM | 2.7 µM |
